pIC50: −log10 of the molar value.
Columns and labels:
Format in all cases: biochemical
[1] = target: p110α/p85α (Homo sapiens, UniProt P42336); experiment: Transcreener KINASE Assay, kinase inhibition of p110α/p85α; conditions: for PI3Kα IH % @ 1 uM: 1 uM test compound
Experimental: PI3K kinases including p110α/p85α, p110δ/p85α and p110γ are purchased from Invitrogen, and p110β/p85α is from Millipore.
Primary screening data and IC50 values are measured using Transcreener™ KINASE Assay (Bellbrook, Catalog #3003-10K). […] It is a universal, homogenous, high throughput screening (HTS) technology using a far-red, competitive fluorescence polarization immunoassay based on the detection of ADP to monitor the activity of enzymes that catalyze group transfer reactions. Briefly, the Transcreener KINASE Assay is designed as a simple two-part, endpoint assay.
In the first step, the 25 ul kinase reaction is performed by preparing a reaction mixture containing 5 ul test compound (2% DMSO final concentration), 10 ul kinase, buffer (50 mM HEPES, 100 mM NaCl, 1 mM EGTA, 0.03% CHAPS, 3 mM MgCl2, and freshly supplemented 1 mM DTT), and 10 ul 30 uM PIP2/10 uM ATP. The plate is sealed and incubated for 80 min at room temperature. Next, 25 ul ADP detection mix is added per well. The plate is sealed again and incubated for 60 min at room temperature, and then measure fluorescence polarization by Tecan Infinite F500 Reader.
Data is analyzed and IC50s are generated using the add-in software for Microsoft Excel, Xlfit™ (version 2.0). IH %=(ADP amount under 2% DMSO-ADP amount under test compound)/ADP amount under 2% DMSO.

[2] = target: p110β/p85α (Homo sapiens, UniProt P42338); experiment: Transcreener KINASE Assay, kinase inhibition of p110β/p85α; conditions: for PI3Kβ IH % @ 1 uM: 1 uM test compound; for pIC50: read-out: PI3Kβ IC50
In short: (§1)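 ADP formation read by far-red competitive FP immunoassay (60 min RT detection step) after an 80 min RT kinase reaction; substrate added as a 30 uM PIP2/10 uM ATP solution (not final).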

[3] = target: p110δ/p85α (Homo sapiens, UniProt O00329); experiment: Transcreener KINASE Assay, kinase inhibition of p110δ/p85α; conditions: for PI3Kδ IH % @ 1 uM: 1 uM test compound; for pIC50: read-out: PI3Kδ IC50
In short: as §1

[4] = target: p110γ (Homo sapiens, UniProt P48736); experiment: Transcreener KINASE Assay, kinase inhibition of p110γ; conditions: for PI3Kγ IH % @ 1 uM: 1 uM test compound; for pIC50: read-out: PI3Kγ IC50
In short: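 Recombinant PI3K isoform complexes were tested in a two-step endpoint ADP-detection assay. Kinase reaction ran 80 min at room temperature, followed by 60 min with ADP detection mix. Far-red competitive fluorescence polarization immunoassay read-out; IC50s fitted from the FP data.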

Sequence of p110δ/p85α (O00329 whole entry): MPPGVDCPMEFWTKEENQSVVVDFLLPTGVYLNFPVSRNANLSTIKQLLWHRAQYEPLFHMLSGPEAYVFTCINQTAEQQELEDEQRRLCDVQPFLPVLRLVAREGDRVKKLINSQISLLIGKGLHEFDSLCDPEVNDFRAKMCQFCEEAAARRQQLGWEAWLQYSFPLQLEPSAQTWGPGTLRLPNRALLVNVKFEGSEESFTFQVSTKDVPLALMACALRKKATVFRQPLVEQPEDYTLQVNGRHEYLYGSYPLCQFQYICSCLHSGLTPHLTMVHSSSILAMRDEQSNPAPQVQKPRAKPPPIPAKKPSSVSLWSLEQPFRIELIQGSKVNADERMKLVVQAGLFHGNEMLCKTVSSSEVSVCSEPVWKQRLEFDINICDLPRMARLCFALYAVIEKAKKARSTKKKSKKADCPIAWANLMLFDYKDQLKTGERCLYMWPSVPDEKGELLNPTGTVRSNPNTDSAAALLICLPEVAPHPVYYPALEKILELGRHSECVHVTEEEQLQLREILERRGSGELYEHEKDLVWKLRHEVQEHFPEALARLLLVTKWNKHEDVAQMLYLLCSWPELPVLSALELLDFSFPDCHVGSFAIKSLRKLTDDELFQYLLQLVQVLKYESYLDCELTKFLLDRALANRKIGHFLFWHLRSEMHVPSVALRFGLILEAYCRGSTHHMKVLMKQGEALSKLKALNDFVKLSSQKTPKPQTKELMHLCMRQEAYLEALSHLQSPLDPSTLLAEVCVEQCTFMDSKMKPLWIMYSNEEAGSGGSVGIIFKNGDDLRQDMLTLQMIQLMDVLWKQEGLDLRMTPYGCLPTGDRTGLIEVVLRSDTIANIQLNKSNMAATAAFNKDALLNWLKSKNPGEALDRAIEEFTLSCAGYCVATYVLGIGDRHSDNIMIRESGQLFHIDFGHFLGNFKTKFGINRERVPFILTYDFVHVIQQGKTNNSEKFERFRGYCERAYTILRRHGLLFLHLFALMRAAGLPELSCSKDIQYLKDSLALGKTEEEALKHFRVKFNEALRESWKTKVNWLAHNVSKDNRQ
Sequence of p110δ/p85α (P27986 whole entry partner): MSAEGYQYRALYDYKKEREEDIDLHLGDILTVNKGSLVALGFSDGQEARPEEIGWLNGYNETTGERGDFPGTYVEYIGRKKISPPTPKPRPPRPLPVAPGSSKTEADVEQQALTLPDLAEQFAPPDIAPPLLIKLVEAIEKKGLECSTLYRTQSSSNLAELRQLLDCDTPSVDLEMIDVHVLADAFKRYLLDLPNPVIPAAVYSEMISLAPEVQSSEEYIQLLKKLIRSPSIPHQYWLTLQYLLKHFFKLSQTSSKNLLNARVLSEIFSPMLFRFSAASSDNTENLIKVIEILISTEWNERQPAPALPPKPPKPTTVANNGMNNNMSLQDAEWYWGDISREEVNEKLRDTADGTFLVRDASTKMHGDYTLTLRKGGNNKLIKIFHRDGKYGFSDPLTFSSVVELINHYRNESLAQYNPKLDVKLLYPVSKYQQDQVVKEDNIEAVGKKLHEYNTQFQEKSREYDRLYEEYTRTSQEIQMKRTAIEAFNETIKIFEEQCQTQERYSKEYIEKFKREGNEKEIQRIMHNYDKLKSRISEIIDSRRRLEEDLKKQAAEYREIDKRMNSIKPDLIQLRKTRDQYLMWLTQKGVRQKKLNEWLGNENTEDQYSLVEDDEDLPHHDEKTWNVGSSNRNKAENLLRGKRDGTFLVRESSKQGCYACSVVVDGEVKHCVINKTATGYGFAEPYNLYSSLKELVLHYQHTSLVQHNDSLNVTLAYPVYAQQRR
Sequence of p110β/p85α (P42338 whole entry): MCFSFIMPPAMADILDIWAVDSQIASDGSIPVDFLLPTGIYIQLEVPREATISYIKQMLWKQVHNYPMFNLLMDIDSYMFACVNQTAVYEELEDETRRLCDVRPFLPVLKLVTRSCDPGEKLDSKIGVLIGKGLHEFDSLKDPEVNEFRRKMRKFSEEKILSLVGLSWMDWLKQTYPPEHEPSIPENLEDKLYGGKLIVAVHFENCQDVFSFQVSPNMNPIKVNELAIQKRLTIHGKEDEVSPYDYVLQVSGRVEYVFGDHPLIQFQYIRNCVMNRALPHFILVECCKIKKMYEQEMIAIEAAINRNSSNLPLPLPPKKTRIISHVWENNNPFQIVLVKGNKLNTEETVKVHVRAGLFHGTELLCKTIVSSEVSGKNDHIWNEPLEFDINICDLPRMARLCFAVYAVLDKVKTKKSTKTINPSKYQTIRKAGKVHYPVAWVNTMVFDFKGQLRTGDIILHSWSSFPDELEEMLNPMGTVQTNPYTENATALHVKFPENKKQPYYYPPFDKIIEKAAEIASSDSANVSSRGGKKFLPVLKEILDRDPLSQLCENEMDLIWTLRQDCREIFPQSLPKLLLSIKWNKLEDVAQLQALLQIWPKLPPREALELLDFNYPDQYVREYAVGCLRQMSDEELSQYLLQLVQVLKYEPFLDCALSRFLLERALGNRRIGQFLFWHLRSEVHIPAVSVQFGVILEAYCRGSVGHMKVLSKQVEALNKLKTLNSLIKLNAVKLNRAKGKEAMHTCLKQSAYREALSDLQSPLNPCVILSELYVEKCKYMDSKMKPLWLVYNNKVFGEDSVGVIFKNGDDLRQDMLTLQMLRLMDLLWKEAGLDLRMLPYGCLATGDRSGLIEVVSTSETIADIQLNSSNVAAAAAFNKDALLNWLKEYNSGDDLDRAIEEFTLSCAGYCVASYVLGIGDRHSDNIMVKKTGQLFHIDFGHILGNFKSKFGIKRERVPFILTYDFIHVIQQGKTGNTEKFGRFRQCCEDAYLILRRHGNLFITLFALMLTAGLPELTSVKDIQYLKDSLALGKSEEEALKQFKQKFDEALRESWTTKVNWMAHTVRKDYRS
Sequence of p110β/p85α (P27986 2-724 partner): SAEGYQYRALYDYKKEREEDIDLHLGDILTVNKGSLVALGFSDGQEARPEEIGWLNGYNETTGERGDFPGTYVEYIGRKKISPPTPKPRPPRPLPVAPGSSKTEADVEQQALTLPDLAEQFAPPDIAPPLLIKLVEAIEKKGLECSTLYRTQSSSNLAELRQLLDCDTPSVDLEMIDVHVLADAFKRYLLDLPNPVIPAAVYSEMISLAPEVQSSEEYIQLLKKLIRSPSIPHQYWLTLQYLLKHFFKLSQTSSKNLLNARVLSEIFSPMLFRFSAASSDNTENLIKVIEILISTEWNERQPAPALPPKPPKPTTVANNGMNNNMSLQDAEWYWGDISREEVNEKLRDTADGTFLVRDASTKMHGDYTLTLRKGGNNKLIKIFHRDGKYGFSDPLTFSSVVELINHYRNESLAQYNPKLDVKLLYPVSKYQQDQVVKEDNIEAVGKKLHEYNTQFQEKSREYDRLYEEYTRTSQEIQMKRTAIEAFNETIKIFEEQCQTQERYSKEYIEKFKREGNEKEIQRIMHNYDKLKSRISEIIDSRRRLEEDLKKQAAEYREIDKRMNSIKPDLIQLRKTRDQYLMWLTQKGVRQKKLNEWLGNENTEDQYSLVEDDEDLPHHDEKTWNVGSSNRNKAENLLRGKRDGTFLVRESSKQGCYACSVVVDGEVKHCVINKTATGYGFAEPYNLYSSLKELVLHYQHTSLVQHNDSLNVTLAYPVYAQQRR
Sequence of p110α/p85α (P42336 whole entry): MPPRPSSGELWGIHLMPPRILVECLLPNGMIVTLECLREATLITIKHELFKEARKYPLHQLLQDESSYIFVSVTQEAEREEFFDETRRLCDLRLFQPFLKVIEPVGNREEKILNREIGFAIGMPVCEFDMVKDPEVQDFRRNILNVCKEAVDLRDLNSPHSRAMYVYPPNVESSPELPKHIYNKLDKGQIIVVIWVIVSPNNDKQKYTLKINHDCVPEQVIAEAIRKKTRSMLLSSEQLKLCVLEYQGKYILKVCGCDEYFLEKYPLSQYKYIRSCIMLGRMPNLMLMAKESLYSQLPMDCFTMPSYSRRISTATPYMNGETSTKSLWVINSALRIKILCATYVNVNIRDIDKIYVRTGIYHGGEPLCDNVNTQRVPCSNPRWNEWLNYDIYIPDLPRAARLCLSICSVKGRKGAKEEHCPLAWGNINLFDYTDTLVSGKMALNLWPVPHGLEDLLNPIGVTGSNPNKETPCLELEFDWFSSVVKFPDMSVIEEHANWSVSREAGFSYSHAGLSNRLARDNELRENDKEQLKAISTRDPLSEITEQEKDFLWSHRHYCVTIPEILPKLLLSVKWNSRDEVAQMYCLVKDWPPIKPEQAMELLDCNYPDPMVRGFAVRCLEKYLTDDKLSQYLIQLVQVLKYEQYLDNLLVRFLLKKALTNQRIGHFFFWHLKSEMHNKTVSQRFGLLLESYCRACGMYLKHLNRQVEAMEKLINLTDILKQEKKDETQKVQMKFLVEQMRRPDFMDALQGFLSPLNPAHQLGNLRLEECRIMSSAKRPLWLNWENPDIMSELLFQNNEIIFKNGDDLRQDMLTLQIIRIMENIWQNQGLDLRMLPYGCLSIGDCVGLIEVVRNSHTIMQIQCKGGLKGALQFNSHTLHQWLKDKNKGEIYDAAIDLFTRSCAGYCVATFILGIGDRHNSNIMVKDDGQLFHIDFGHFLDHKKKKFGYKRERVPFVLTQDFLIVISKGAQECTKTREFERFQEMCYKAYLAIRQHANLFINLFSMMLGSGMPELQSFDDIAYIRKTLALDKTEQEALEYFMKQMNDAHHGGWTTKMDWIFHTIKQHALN
Sequence of p110α/p85α (P27986 whole entry partner): as the sequence (P27986 whole entry partner) above

Structure (SMILES)	PI3Kα IH % @ 1 uM [1] [%]	PI3Kβ IH % @ 1 uM [2] [%]	PI3Kδ IH % @ 1 uM [3] [%]	PI3Kγ IH % @ 1 uM [4] [%]	pIC50 [2]	pIC50 [3]	pIC50 [4]	pIC50 ([1]; read-out: PI3Kα IC50)
N#Cc1c[nH]c2ncnc(N3CC[C@H]3c3nn4cccc4c(=O)n3-c3ccccc3)c12 [Compound 6]	−10.6	28.0	91.5	58.6				
O=c1c2cccn2nc([C@@H]2CCN2c2ncnc3[nH]cnc23)n1-c1ccccc1 [Compound 7]	−18.6	17.7	50.4	16.6				
N#Cc1c[nH]c2ncnc(N3CCC[C@H]3c3nn4ccc(Cl)c4c(=O)n3-c3ccccc3)c12 [Compound 25]	80.9	93.7	>100	98.6	7.47	9.00		
O=c1c2c(Cl)ccn2nc([C@@H]2CCCN2c2ncnc3[nH]cnc23)n1-c1ccccc1 [Compound 26]	20.3	88.7	>100	93.3	7.04	8.70		
N#Cc1c[nH]c2ncnc(N3CC[C@H]3c3nn4ccc(Cl)c4c(=O)n3-c3ccccc3)c12 [Compound 28]	−0.3	49.9	>100	92.2		7.85	7.49	
CC(=O)c1cnc(N)nc1N1CC[C@H]1c1nn2ccc(Cl)c2c(=O)n1-c1ccccc1 [Compound 299]		38.6	99.4		6.19	8.22		5.53
CC(=O)c1cnc(N)nc1N[C@@H](C)c1cc2ncc(Cl)n2c(=O)n1-c1ccccc1 [Compound 447, (S)-7-(1-((5-acetyl-2-aminopyrimidin-4-yl)amino)ethyl)-3-chloro-6-phenylimidazo[1,2-c]pyrimidin-5(6H)-one]		95.8	99.5	>100	7.66	9.40	8.40	
Cc1nc(N)nc(N2C[C@H](C)[C@H]2c2nn3ccc(F)c3c(=O)n2-c2ccc(F)cc2)c1C#N [Compound 463]		89.6	>100	>100	7.30	8.40	8.30	
C[C@H]1CN(c2nc(N)ncc2Cl)[C@@H]1c1nn2ccc(F)c2c(=O)n1-c1ccccc1 [Compound 464]		33.0	>100	80.6		8.30	6.86	
C[C@H]1CN(c2nc(N)ncc2Cl)[C@@H]1c1nn2ccc(Cl)c2c(=O)n1-c1ccccc1 [Compound 465]		45.0	>100	94.1		8.10	7.64	
CC1(C)CN(c2nc(N)ncc2Cl)C1c1nn2ccc(Cl)c2c(=O)n1-c1ccccc1 (stereo not shown) [Compound 466]		45.4	>100	93.9		7.70	7.32	
C[C@H]1CN(c2ncnc3[nH]cc(C#N)c23)[C@@H]1c1nn2ccc(Cl)c2c(=O)n1-c1ccc(F)cc1 [Compound 468]		74.0	>100	96.6	6.51	7.70		
Cc1nc(N)nc(N2C[C@H](C)[C@H]2c2nn3ccc(Cl)c3c(=O)n2-c2ccccc2)n1 [Compound 469]		47.1	>100	90.5		7.72	7.29	
CC(=O)c1cnc(N)nc1N1CC[C@@H]1c1nn2ccc(Cl)c2c(=O)n1-c1ccccc1 [Compound 470]		4.9	27.8	36.6				
CC(=O)c1cnc(N)nc1N1CCC1c1nn2ccc(Cl)c2c(=O)n1-c1ccccn1 (stereo not shown) [Compound 474]		48.3	99.3	98.2		8.15	8.05	
C[C@H]1CN(c2ncnc3[nH]cc(C#N)c23)[C@@H]1c1nn2ccc(Cl)c2c(=O)n1-c1ccccn1 [Compound 476]		78.1	95.9	89.5	7.10	9.00	7.62	
C[C@H]1CN(c2nc(N)ncc2C#N)[C@@H]1c1nn2ccc(Cl)c2c(=O)n1-c1ccccn1 [Compound 477]		31.7	>100	76.1		7.24	6.45	
Cc1nc(N)nc(N2C[C@H](C)[C@H]2c2nn3ccc(Cl)c3c(=O)n2-c2ccccn2)c1C#N [Compound 478]		96.4	>100	>100	7.49	9.00	8.52	
CC(=O)c1cnc(N)nc1N1CC[C@H]1c1nn2ccc(Cl)c2c(=O)n1-c1cccc(C)n1 [Compound 479]		20.1	91.6	94.7		8.00	6.92	
N#Cc1c(N)nc(N)nc1N1CCC1c1nn2ccc(Cl)c2c(=O)n1-c1ccccc1 (stereo not shown) [Compound 482]		91.9	>100	>100	6.58	9.00	8.15	
CC(=O)c1cnc(N)nc1N1CC(C)(C)[C@H]1c1nn2ccc(Cl)c2c(=O)n1-c1ccccc1 [Compound 485, (S)-2-(1-(5-acetyl-2-aminopyrimidin-4-yl)-3,3-dimethylazetidin-2-yl)-5-chloro-3-phenylpyrrolo[2,1-f][1,2,4]triazin-4(3H)-one]		−2.1	>100	45.2		7.02		
N#Cc1c[nH]c2ncnc(N3CC[C@H]3c3nn4ccc(C(F)(F)F)c4c(=O)n3-c3ccccc3)c12 [Compound 488]		29.1	95.9	87.3		7.74	7.20	
C[C@H]1CN(c2nc(N)ncc2C#N)[C@@H]1c1nn2ccc(C(F)(F)F)c2c(=O)n1-c1ccccc1 [Compound 490]		33.4	96.6	>100		7.27	7.82	
Cc1nc(N)nc(N2CC[C@H]2c2nn3ccc(C#N)c3c(=O)n2-c2ccccc2)c1C#N [Compound 497, (S)-2-(1-(2-amino-5-cyano-6-methylpyrimidin-4-yl)azetidin-2-yl)-4-oxo-3-phenyl-3,4-dihydropyrrolo[2,1-f][1,2,4]triazine-5-carbonitrile]		67.6	>100	91.1		8.22	7.96	
Cc1nc(N)nc(N2C[C@H](C)[C@H]2c2nn3ccc(C#N)c3c(=O)n2-c2ccccc2)c1C#N [Compound 499]		86.1	>100	96.0	7.08	8.70	8.30	
CC(=O)c1cnc(N)nc1N1C[C@H](C)[C@H]1c1nn2ccc(C#N)c2c(=O)n1-c1ccccc1 [Compound 500]		71.5	95.4	98.7	6.17	8.22	8.15	
C[C@H]1CN(c2nc(N)ncc2C#N)[C@@H]1c1nn2ccc(C#N)c2c(=O)n1-c1ccccc1 [Compound 501]		24.0	91.8	>100		7.11		
Cc1nc(N)nc(N2CC[C@H]2c2nn3c(C)cc(Cl)c3c(=O)n2-c2ccccc2)c1C#N [Compound 502]		33.6	66.2	66.4				
CC(=O)c1cnc(N)nc1N1CC[C@H]1c1nn2c(C)cc(Cl)c2c(=O)n1-c1ccccc1 [Compound 503]		6.2	49.2	63.0				
C[C@H]1CN(c2nc(N)nc(N)c2C#N)C1c1nn2ccc(Cl)c2c(=O)n1-c1cccc(F)c1 (stereo partly shown) [Compound 504]		75.6	>100	>100	6.92	8.70	8.70	

Reference: patent US20150307520A1, “NOVEL HETEROARYL AND HETEROCYCLE COMPOUNDS, COMPOSITIONS AND METHODS THEREOF” (HUTCHISON MEDIPHARMA LIMITED, priority 2012, published 2015)
